This is an account of results in patent publication US7008922B2, “H-Y antigen” (Rijksuniversiteit te Leiden, priority 1995, dated 2006).

pEC50, pIC50: −log10 of the molar value. Where a SMILES comes first, the peptide text is derived from it.

For test [1], the target named is purified HLA-B7 (Homo sapiens, UniProt P01889). The experiment in a line: Inhibition of binding of iodinated standard peptide to purified HLA-B7. To be noted: iodinated endogenous B7 peptide […]. The protocol: Binding of synthetic peptides to purified HLA-B7. HPLC-purified test peptides were assayed for the ability to inhibit the binding of the iodinated endogenous B7 peptide […] (SEQ ID NO:4) to purified HLA-B7 as previously described (40). (♦), SMCY peptide […] (SEQ ID NO:1); (▪) SMCX peptide […] (SEQ ID NO:3); (Δ), […] (SEQ ID NO:5), an endogenous peptide bound to HLA-B7; (x) […] (SEQ ID NO.6), an endogenous peptide bound to HLA-A2.1 as the negative control.
Sequence of purified HLA-B7 (P01889 25-362): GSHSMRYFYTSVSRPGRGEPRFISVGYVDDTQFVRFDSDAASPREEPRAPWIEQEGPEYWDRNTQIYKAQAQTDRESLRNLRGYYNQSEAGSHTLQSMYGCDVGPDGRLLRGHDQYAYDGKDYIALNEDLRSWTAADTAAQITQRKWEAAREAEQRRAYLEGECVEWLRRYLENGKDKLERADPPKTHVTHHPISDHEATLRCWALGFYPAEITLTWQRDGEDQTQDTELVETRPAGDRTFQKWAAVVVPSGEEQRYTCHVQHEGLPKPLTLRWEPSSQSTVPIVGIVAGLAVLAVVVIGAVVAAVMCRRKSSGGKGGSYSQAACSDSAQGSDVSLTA
Sequence of purified HLA-B7 (P61769 21-119 partner): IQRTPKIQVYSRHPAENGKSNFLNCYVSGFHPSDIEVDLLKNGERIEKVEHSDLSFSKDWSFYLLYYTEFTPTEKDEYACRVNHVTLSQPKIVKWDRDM
The corresponding peptide derived from the sequence of the X chromosomal homolog, SMCX, has substitutions of A for S at position 3 and Q for R at position 8. […] Thus, the significant difference in the ability of the SMCY and SMCX peptides to sensitize targets for T cell recognition is almost entirely due to the fine specificity of the T cell receptor, rather than to differences in MHC binding affinities. The SMCX peptide is also present in naturally processed peptide extracts of HLA-B7, although its abundance is only 25% of that of the SMCY peptide (33). Based on all of this information, it is concluded that the peptide epitopes representing the HLA-B7 restricted H-Y antigen is derived from the protein encoded by SMCY, which is also true for the HLA-A2.1 recognized peptide, also encoded by SMCY.

Test [2] deals with T2-B7 cells. The experiment in a line: H-Y epitope reconstitution, 51Cr release assay with HLA-B7-restricted H-Y specific CTL clone 5W4. It counts as cell-based, human. To be noted: T2-B7 cells sensitized with synthetic peptide, effector to target ratio 10 to 1, read-out: peptide concentration at which half-maximal lysis was achieved. An excerpt:
Reconstitution of the H-Y epitope with HPLC fractionated peptides extracted from HLA-B7 molecules. (A) HLA-B7 molecules were immunoaffinity purified from […] H-Y positive JY cells. Peptides were eluted from B7 molecules with 10% acetic acid, pH 2.2, filtered through a 10 kD cut-off filter and fractionated on a C18 reverse phase column. Buffer A was 0.1% heptafluorobutyric acid (HFBA); buffer B was 0.1% HFBA in acetonitrile. The gradient consisted of 100% buffer A (0–20 mm), 0 to 12% buffer B (20 to 25 mm), and 12 to 50% buffer B (25 to 80 mm) at a flow rate of 200 μl/min. 60 fractions of 200 μl each were collected from 20 to 80 mm. […]
H-Y epitope reconstitution with synthetic peptides. […] Purity was established on an analytical RP column and the quantity of each peptide was confirmed by comparing the area of the peak with that of a standard peptide. […]
To isolate endogenously processed H-Y peptides, HLA-B7 molecules were purified by affinity chromatography from the H-Y positive, B lymphoblastoid cell line, JY (29). […] Although a single active peak of reconstituting activity was also observed from this separation (FIG. 1B, fraction 14, 15 and 16), it still contained more than 100 distinct peptide species, as assessed by electrospray ionization tandem mass spectrometry. […]

The subject of test [3] is HLA-A2.1 restricted H-Y specific T cell clones. The experiment in a line: H-Y reconstitution assay with HLA-A2.1 restricted H-Y specific T cell clones R416 and 1R35. The test is classed as cell-based, human. An excerpt:
HLA-A2 molecules were immunoaffinity purified from 10^10 DM cells. Peptides were eluted according to the methodology as described in legend to FIG. 1.
In the same manner as described above for the HLA-B7 restricted T-cell clone, the peptide recognized by two HLA-A2.1 T-cell clones was identified. In short the HLA-A2.1 restricted H-Y specific T cell clone R416 recognizes HPLC fraction 34, the HLA-A2.1 restricted H-Y specific T clone 1R35 recognizes HPLC fractions 36 and 39 (FIG. 6).

A word on the pIC50: it is the negative decadic logarithm of the IC50, by convention in mol/L. Lower therefore signals a large IC50. On to `CC(C)C[C@H](NC(=O)[C@H](CCC(=O)O)NC(=O)[C@H](C)NC(=O)[C@H](CCC(N)=O)NC(=O)[C@H](C)NC(=O)[C@H](CCCCN)NC(=O)[C@H](CC(=O)O)NC(=O)[C@@H](NC(=O)[C@H](C)NC(=O)[C@@H]1CCCN1C(=O)[C@@H](N)CO)C(C)C)C(=O)O` [SMCX peptide, reference compound] (H-SPAVDKAQAEL-OH), for which the pIC50 in test [1] is 6.85.
Regarding `CC(C)C[C@H](NC(=O)[C@H](CCC(=O)O)NC(=O)[C@H](C)NC(=O)[C@H](CCCNC(=N)N)NC(=O)[C@H](C)NC(=O)[C@H](CCCCN)NC(=O)[C@H](CC(=O)O)NC(=O)[C@@H](NC(=O)[C@H](CO)NC(=O)[C@@H]1CCCN1C(=O)[C@@H](N)CO)C(C)C)C(=O)O` [SMCY peptide] (H-SPSVDKARAEL-OH; N-terminus and C-terminus assumed), the pEC50 in test [2] was 11.00. The pIC50 in test [1] is 7.47.
As to “FIDSYICQV (listed as Homo sapiens) [SMCY-encoded peptide recognized by HLA-A2.1 restricted H-Y specific T cell clones]”, the “recognition by HLA-A2.1 restricted H-Y specific T cell clones” value in test [3] is listed as “recognize”.
